Data as given in patent US20110294772A1, “USE OF CYCLOSQUARAMIDE COMPOUNDS AS ANTI-TUMOUR AGENTS” (priority 2008, published 2011).

These compounds were tested on Jeko-1 (assay: cell viability assay). Conditions: Homo sapiens, JeKo-1, 48 h, cell viability, total incubation period 48 h; read-out: IC50 (μM) against Jeko-1 cells.
Assay type: cell-based, human
Method: The IC50 in cell viability assays were determined for some of the macrocycles prepared in Jeko-1 (B-cell lymphoma (MCL) type cells. With a total incubation period of 48 h.

Structure (SMILES) | IC50 [µM]
CSCCC1Nc2c(c(=O)c2=O)NCCCN(C)CCCNc2c(c(=O)c2=O)NCCCN(C)CCCNc2c(c(=O)c2=O)NCCCN(C)CCCNc2c(c(=O)c2=O)NCCCN(C)CCCNc2c(c(=O)c2=O)NCCCNC1=O (stereo not drawn) [Compound 3] | 34
CSCCC1Nc2c(c(=O)c2=O)NCCCN(C)CCCNc2c(c(=O)c2=O)NCCCN(C)CCCNc2c(c(=O)c2=O)NCCCN(C)CCCNc2c(c(=O)c2=O)NCCCN(C)CCCNc2c(c(=O)c2=O)NCCCN(C)CCCNc2c(c(=O)c2=O)NCCCNC1=O (stereo not drawn) [Compound 4] | 24

Same assay, conditions: cell viability, total incubation period 48 h; read-out: IC50 (μM) against Jeko-1 cells

Structure (SMILES) | IC50 [µM]
CN1CCCNc2c(c(=O)c2=O)NCCCN(C)CCCNc2c(c(=O)c2=O)NCCCN(C)CCCNc2c(c(=O)c2=O)NCCCN(C)CCCNc2c(c(=O)c2=O)NCCCN(C)CCCNc2c(c(=O)c2=O)NCCCN(C)CCCNc2c(c(=O)c2=O)NCCC1 [Compound 1] | 27
CN1CCCNc2c(c(=O)c2=O)NCCCN(C)CCCNc2c(c(=O)c2=O)NCCCN(C)CCCNc2c(c(=O)c2=O)NCCCN(C)CCCNc2c(c(=O)c2=O)NCCCN(C)CCCNc2c(c(=O)c2=O)NCCCN(C)CCCNc2c(c(=O)c2=O)NCCC1 [Compound 2] | 45
CN1CCCNc2c(c(=O)c2=O)NCCCN(C)CCCNc2c(c(=O)c2=O)NCCCN(C)CCCNc2c(c(=O)c2=O)NCCCN(C)CCCNc2c(c(=O)c2=O)NCCCN(C)CCCNc2c(c(=O)c2=O)NCCCN(C)CCCNc2c(c(=O)c2=O)NCCC1 [Compound 5] | 50
CN1CCCNc2c(c(=O)c2=O)NCCCN(C)CCCNc2c(c(=O)c2=O)NCCCN(C)CCCNc2c(c(=O)c2=O)NCCCN(C)CCCNc2c(c(=O)c2=O)NCCCN(C)CCCNc2c(c(=O)c2=O)NCCCN(C)CCCNc2c(c(=O)c2=O)NCCC1 [Compound 11] | 9.4
